One assay addresses Caspase-8 (Homo sapiens, UniProt Q14790). Briefly: caspase-8 inhibition counter-screen, dose response, selectivity assay for caspase-6 inhibitor project, biochemical, Z-IETD-R110 fluorescence, cherry-picked samples (AID 743294). (A counterscreen serves to expose hits that act by an unwanted route or on another target.)
The target of another assay is T1, Protein RecA (Mycobacterium tuberculosis, UniProt P9WHJ3).
T1 sequence (P9WHJ3 whole entry): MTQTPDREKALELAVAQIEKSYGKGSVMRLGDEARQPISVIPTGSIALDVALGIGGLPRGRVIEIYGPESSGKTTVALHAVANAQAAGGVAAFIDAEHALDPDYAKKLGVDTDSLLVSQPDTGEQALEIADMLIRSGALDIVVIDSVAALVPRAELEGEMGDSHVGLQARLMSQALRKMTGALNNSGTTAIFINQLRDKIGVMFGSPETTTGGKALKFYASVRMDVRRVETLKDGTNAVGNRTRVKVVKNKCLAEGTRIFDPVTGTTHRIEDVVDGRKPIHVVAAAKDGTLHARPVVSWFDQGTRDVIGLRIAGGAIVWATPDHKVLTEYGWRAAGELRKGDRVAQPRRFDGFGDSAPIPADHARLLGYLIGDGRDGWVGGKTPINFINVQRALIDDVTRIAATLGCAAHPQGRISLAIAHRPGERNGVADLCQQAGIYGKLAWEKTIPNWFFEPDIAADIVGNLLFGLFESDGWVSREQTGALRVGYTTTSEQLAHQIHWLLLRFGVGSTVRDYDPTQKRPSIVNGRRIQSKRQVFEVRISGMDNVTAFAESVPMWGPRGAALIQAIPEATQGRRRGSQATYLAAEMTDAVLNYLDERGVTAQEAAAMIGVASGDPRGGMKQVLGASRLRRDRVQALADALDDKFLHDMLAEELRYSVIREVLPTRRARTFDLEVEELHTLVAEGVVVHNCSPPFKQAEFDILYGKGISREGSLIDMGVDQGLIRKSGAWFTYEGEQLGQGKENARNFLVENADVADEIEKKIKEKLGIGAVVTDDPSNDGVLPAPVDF
Description: Fluorescence Cell-Free Homogeneous Dose Retest to Identify Inhibitors of RecA-Intein Splicing Activity. [Related pubchem assays (depositor defined):AID2097, AID2223, AID489010, AID492950]. The assay is classed as functional.

The next assay has as its target T2, Caspase-3 (Homo sapiens, UniProt P42574).
T2 sequence (P42574 whole entry): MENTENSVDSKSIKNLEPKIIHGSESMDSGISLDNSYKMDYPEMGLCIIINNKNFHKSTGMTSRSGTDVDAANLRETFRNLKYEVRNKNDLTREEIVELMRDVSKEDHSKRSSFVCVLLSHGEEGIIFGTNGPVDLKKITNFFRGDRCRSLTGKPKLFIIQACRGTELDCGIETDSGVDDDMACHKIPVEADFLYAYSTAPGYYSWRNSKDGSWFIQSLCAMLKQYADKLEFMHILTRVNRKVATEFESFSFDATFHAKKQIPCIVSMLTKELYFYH
Description: SAR Analysis of small molecule inhibitors of Sentrin-specific proteases (SENPs) using a Caspase-3 Selectivity assay. [Related pubchem assays (depositor defined):AID2540, AID2599, AID434973, AID489001]. The assay is classed as functional.

Assay [1] concerns the target cGMP-dependent protein kinase 1 (Homo sapiens, UniProt Q13976). The assay is classed as functional.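 Also: value from a kinome panel screen with PRKG1 as the panel member.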
For assay [2], the target named is 5'-AMP-activated protein kinase catalytic subunit alpha-1 (Homo sapiens, UniProt Q13131). Type of assay: functional.
The target of assay [3] is Serine/threonine-protein kinase PLK4 (Homo sapiens, UniProt O00444). The assay is classed as functional.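 Also: PLK4 measured as one member of a kinome-wide kinase profiling panel.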
Chain of Serine/threonine-protein kinase PLK4 (O00444 whole entry): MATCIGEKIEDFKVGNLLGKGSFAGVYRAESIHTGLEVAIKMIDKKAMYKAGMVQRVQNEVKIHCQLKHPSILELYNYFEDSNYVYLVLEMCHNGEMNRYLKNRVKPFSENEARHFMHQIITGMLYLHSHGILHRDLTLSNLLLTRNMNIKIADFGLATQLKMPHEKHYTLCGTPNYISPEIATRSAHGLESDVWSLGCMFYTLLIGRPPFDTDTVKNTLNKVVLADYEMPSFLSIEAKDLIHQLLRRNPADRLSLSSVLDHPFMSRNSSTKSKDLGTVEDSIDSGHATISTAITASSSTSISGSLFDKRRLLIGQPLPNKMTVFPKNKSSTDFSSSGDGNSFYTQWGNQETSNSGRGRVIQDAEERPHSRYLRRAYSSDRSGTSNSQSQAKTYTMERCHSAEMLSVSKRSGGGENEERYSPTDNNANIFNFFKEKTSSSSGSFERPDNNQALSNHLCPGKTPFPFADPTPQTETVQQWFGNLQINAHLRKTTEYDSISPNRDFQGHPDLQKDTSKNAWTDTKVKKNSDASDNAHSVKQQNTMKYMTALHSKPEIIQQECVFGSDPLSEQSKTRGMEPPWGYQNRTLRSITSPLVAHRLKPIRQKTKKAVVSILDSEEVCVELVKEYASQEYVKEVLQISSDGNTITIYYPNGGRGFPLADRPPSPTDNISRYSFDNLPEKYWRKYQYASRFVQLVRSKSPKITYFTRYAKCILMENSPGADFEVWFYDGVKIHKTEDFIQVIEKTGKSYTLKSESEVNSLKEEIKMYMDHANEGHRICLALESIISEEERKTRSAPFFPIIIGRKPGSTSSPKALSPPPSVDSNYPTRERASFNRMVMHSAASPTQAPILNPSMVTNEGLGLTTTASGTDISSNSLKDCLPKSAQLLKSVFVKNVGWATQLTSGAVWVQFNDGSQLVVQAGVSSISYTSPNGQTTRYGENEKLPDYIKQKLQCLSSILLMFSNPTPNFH
The target in assay [4] is Calcium/calmodulin-dependent protein kinase type II subunit gamma (Homo sapiens, UniProt Q13555). The assay is classed as functional.
The target in assay [5] is Serine/threonine-protein kinase Chk2 (Homo sapiens, UniProt O96017). Type of assay: functional.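 Also: CHEK2 entry within a kinome-wide screening panel.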
The target of assay [6] is MAP kinase-activated protein kinase 2 (Homo sapiens, UniProt P49137). The assay is classed as functional.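 Also: measured as one member of a kinome-wide kinase panel.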
Chain of MAP kinase-activated protein kinase 2 (P49137 whole entry, canonical isoform): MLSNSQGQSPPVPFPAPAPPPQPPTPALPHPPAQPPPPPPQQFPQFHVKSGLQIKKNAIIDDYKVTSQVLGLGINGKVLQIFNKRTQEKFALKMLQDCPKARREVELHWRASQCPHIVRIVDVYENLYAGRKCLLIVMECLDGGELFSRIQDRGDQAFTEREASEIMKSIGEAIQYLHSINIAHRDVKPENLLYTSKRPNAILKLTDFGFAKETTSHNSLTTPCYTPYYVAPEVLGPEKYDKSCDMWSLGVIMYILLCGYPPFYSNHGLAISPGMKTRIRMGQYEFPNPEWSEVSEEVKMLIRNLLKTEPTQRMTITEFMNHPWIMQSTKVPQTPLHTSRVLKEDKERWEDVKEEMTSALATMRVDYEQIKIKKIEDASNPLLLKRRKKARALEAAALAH
For assay [7], the target named is Casein kinase I isoform alpha (Homo sapiens, UniProt P48729). The assay is classed as functional.
Chain of Casein kinase I isoform alpha (P48729 whole entry, canonical isoform): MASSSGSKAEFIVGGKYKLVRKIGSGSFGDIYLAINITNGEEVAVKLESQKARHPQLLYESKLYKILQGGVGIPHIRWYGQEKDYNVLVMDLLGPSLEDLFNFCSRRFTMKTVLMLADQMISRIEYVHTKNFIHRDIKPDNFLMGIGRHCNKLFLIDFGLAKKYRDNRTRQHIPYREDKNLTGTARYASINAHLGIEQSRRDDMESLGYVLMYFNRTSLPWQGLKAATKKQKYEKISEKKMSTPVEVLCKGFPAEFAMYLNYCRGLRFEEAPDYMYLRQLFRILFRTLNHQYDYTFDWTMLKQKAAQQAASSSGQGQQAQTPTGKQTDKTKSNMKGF
In assay [8] the target is Serine/threonine-protein kinase TAO1 (Homo sapiens, UniProt Q7L7X3). The assay is classed as functional.
Chain of Serine/threonine-protein kinase TAO1 (Q7L7X3 whole entry): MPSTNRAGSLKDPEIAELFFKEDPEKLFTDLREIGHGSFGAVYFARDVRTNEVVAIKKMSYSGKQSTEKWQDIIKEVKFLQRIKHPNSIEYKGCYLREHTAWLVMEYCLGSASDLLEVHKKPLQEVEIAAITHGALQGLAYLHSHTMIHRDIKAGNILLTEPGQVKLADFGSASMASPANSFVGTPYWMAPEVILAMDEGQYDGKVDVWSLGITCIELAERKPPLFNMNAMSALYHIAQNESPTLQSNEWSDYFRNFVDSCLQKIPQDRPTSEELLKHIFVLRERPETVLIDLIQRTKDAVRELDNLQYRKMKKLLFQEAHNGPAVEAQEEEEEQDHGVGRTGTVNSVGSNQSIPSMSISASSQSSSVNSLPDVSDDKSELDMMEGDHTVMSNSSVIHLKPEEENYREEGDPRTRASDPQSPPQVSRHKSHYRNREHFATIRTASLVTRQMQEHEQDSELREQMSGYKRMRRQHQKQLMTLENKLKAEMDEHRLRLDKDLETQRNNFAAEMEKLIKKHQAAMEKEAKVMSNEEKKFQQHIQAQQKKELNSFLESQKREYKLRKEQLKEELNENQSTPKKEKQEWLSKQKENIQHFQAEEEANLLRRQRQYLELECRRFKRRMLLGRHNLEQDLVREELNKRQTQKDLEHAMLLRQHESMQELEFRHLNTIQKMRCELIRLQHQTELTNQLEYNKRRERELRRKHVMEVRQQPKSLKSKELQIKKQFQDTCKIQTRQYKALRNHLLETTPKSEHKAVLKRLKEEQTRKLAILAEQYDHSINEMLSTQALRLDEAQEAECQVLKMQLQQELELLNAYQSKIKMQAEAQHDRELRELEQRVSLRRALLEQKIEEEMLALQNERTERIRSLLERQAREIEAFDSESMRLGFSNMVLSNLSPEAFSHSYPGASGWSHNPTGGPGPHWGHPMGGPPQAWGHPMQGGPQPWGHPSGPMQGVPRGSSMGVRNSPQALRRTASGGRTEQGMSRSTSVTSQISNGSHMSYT
A further assay addresses Insulin receptor (Homo sapiens, UniProt P06213). The assay is classed as functional.
Assay [9] addresses Non-receptor tyrosine-protein kinase TYK2 (Homo sapiens, UniProt P29597). The assay is classed as functional.
For assay [10], the target named is Receptor-type tyrosine-protein kinase FLT3 (Homo sapiens, UniProt P36888). Type of assay: functional.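 Also: FLT3 was tested as one member of a kinome-wide kinase panel.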
Chain of Receptor-type tyrosine-protein kinase FLT3 (P36888 whole entry): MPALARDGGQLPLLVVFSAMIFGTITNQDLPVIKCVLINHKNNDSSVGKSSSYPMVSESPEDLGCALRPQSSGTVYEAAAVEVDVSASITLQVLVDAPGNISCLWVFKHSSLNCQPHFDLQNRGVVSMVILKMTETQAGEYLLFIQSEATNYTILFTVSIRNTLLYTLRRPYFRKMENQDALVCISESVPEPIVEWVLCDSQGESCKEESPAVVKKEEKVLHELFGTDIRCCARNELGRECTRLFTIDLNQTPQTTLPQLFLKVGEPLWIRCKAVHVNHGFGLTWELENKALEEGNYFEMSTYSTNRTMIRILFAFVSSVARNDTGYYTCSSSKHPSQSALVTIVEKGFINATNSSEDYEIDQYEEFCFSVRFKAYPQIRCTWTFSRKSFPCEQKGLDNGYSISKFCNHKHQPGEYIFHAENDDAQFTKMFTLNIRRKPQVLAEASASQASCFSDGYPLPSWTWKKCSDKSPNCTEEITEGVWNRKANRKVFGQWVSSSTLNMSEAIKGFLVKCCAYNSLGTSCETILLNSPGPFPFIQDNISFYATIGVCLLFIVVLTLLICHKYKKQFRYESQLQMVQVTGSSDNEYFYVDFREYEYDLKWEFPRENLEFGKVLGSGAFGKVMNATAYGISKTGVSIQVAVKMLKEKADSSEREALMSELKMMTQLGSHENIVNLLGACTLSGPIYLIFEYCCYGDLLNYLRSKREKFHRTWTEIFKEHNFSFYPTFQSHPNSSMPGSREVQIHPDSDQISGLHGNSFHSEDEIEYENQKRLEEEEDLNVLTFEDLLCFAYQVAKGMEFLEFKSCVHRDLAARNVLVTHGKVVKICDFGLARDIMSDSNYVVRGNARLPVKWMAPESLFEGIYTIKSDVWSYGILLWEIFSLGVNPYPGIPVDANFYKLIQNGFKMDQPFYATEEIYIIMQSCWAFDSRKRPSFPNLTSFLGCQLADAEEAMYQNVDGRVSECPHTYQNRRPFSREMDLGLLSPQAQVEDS
The next assay has as its target Ephrin type-A receptor 2 (Homo sapiens, UniProt P29317). Type of assay: functional.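 Also: EPHA2 tested as one member of a kinome-wide kinase panel.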
The next assay deals with Misshapen-like kinase 1 (Homo sapiens, UniProt Q8N4C8). The assay is classed as functional.
The target of assay [11] is Dual specificity tyrosine-phosphorylation-regulated kinase 4 (Homo sapiens, UniProt Q9NR20). Type of assay: functional.
In assay [12] the target is Homeodomain-interacting protein kinase 4 (Homo sapiens, UniProt Q8NE63). Type of assay: functional.
Chain of Homeodomain-interacting protein kinase 4 (Q8NE63 whole entry): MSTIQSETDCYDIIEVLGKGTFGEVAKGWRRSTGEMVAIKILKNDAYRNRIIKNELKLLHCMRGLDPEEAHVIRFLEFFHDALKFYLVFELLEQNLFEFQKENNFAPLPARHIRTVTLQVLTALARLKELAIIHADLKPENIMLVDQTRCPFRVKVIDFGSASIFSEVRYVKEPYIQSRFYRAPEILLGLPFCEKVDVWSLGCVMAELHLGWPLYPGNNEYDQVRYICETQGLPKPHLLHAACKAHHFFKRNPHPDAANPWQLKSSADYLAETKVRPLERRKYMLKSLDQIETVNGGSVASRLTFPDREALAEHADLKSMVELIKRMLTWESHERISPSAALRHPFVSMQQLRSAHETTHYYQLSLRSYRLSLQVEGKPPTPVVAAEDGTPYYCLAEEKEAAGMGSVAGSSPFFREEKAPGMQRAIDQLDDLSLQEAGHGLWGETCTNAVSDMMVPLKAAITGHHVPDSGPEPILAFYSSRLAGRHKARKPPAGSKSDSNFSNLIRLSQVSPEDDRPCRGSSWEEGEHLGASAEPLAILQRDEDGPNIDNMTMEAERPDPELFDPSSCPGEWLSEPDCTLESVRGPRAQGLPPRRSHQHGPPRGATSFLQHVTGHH
Assay [13] concerns the target Serine/threonine-protein kinase pim-2 (Homo sapiens, UniProt Q9P1W9). Type of assay: functional.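 Also: value comes from a broad kinase panel profiling study in which PIM2 was one of the panel members.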
Assay [14] deals with STE20-like serine/threonine-protein kinase (Homo sapiens, UniProt Q9H2G2). The assay is classed as functional.
The target in assay [15] is Receptor tyrosine-protein kinase erbB-4 (Homo sapiens, UniProt Q15303). Type of assay: functional.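 Also: ERBB4 member of a kinome-wide kinase profiling panel.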
The target in assay [16] is Lymphokine-activated killer T-cell-originated protein kinase (Homo sapiens, UniProt Q96KB5). The assay is classed as functional.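 Also: value comes from a kinase panel screen in which TOPK was one of the panel members.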
In assay [17] the target is Serine/threonine-protein kinase BRSK1 (Homo sapiens, UniProt Q8TDC3). The assay is classed as functional.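 Also: measured within a kinome-wide kinase panel, with the target listed as KIAA1811.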

Structures are written as SMILES. The source made the active and inactive calls.

The text below walks through data of ChEMBL document CHEMBL1201862, “PubChem BioAssay data set” (2004).

Chain of Serine/threonine-protein kinase pim-2 (Q9P1W9 whole entry): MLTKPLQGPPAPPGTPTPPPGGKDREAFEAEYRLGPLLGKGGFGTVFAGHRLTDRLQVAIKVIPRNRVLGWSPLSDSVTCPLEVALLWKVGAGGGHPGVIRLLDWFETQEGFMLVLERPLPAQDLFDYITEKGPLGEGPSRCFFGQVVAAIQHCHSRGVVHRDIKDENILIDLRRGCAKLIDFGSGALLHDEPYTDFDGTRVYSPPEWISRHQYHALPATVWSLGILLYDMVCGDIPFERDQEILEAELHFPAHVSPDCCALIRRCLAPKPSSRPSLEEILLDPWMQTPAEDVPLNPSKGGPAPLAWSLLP
Chain of Caspase-8 (Q14790 217-374 limits assumed): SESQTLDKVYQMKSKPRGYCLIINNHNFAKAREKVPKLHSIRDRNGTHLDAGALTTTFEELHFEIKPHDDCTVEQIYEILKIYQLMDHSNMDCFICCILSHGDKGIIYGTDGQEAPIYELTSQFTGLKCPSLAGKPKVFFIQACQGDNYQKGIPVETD
Chain of Caspase-8 (Q14790 385-479 limits assumed): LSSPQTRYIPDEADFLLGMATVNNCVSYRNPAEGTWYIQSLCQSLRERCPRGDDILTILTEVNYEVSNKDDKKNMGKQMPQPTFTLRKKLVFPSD

A word on the AC50: it is the concentration giving half of the maximal activity seen. In the case of `O=C(COC(=O)c1ccc([N+](=O)[O-])s1)Nc1cccc(S(=O)(=O)/N=C2/CCCCCN2)c1`, at Caspase-8, the AC50 is 21.2 µM (active).

The term EC50 denotes the concentration needed to bring the measured effect to its halfway point. One may read the IC50 as the concentration at which inhibition is half-maximal. In the case of `COc1ccc(C(C[N+](=O)[O-])c2c(C)[nH]n(-c3ccccc3)c2=O)cc1` (stereo not drawn), at Protein RecA, the EC50 was 3.3 µM (active). Besides, the IC50 on Caspase-3 is 45.5 µM (active).

A word on the Ki: it is the dissociation constant of the complex between target and ligand, obtained from inhibition or displacement. With `Oc1c2ccccc2c2c3c(cccc13)N=N2` [SP-600125], the Ki was > 2 µM (inactive) in assay [1]; > 1.58 µM (inactive) in assay [2]; 0.2 µM (active) in assay [3]; 1.58 µM (active) in assay [4]; 0.501 µM (active) in assay [5]; > 7.94 µM (inactive) in assay [6]. The Ki in assay [7] is 0.316 µM (active); in assay [8] it was 5.01 µM (active); on Insulin receptor, 0.501 µM (active); in assay [9], 1.26 µM (active); in [10], 0.0501 µM (active); on Ephrin type-A receptor 2 it was > 3.16 µM (inactive). Further, the Ki on Misshapen-like kinase 1 is 0.2 µM (active); in assay [11] it was > 7.94 µM (inactive); in assay [12] it was 2 µM (active); in assay [13], 0.316 µM (active); in [14], 3.16 µM (active); in [15], 3.98 µM (active). Also, the Ki was 1 µM (active) in assay [16] and 0.794 µM (active) in assay [17].
